Source: ChEMBL document CHEMBL1201862, “PubChem BioAssay data set” (2004)
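Tested at 5 concentrations; 48 h exposure; 96-well plates; endpoints linearly interpolated, else capped at highest concentration. At the GI50, growth is halved.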 Active and inactive are the calls of the source. Cut-off read from the data, not from the text of the source: active = GI50 up to about 1.1 µM and inactive = higher.

Columns and labels:
Assay in all cases: DTP human tumour cell line panel, 48 h
A498 = test system: A498
MDA-MB-435 = test system: MDA-MB-435
BT-549 = test system: BT-549
SK-MEL-28 = test system: SK-MEL-28
SK-MEL-2 = test system: SK-MEL-2
MDA-MB-231 = test system: MDA-MB-231
NCI-H460 = test system: NCI-H460
Hs-578T = test system: Hs-578T
MOLT-4 = test system: MOLT-4
HL-60 = test system: HL-60
NCI-H23 = test system: NCI-H23
CAKI-1 = test system: CAKI-1
OVCAR-5 = test system: OVCAR-5
PC-3 = test system: PC-3
HOP-92 = test system: HOP-92
SF-295 = test system: SF-295
HT-29 = test system: HT-29
TK-10 = test system: TK-10
HCT-116 = test system: HCT-116
NCI-H226 = test system: NCI-H226
SF-268 = test system: SF-268
SK-MEL-5 = test system: SK-MEL-5
NCI-H522 = test system: NCI-H522
CCRF-CEM = test system: CCRF-CEM
EKVX = test system: EKVX
ACHN = test system: ACHN
HOP-62 = test system: HOP-62
T47D = test system: T47D
SW-620 = test system: SW-620
HCT-15 = test system: HCT-15
DU-145 = test system: DU-145
UACC-257 = test system: UACC-257
IGROV-1 = test system: IGROV-1
OVCAR-3 = test system: OVCAR-3
M14 = test system: M14
MDA-N = test system: MDA-N
SNB-75 = test system: SNB-75
RXF 393 = test system: RXF 393
LOX IMVI = test system: LOX IMVI
OVCAR-4 = test system: OVCAR-4
SK-OV-3 = test system: SK-OV-3
UACC-62 = test system: UACC-62
SNB-19 = test system: SNB-19
SF-539 = test system: SF-539
KM12 = test system: KM12
HCC 2998 = test system: HCC 2998
A549 = test system: A549
K562 = test system: K562
Malme-3M = test system: Malme-3M
NCI/ADR-RES = test system: NCI/ADR-RES
UO-31 = test system: UO-31
OVCAR-8 = test system: OVCAR-8
U-251 = test system: U-251
MCF7 = test system: MCF7
RPMI-8226 = test system: RPMI-8226
COLO 205 = test system: COLO 205
SR = test system: SR
SN12C = test system: SN12C
786-0 = test system: 786-0

CC(C)(C)OC(=O)NC(Cc1ccc(OCc2ccccc2)cc1)C(=O)NC(COCc1ccccc1)C(=O)Oc1c(Cl)c(Cl)c(Cl)c(Cl)c1Cl (stereo not given)
GI50 (A498): 23.1 µM (inactive)
GI50 (MDA-MB-435): 21.7 µM (inactive)
GI50 (BT-549): 20 µM (inactive)
GI50 (SK-MEL-28): 25.1 µM (inactive)
GI50 (SK-MEL-2): 19 µM (inactive)
GI50 (MDA-MB-231): 13.5 µM (inactive)
GI50 (NCI-H460): 17.6 µM (inactive)
GI50 (Hs-578T): 17.7 µM (inactive)
GI50 (MOLT-4): 37.5 µM (inactive)
GI50 (HL-60): 59.8 µM (inactive)
GI50 (NCI-H23): 17.2 µM (inactive)
GI50 (CAKI-1): 19.9 µM (inactive)
GI50 (OVCAR-5): 25.5 µM (inactive)
GI50 (PC-3): 19.5 µM (inactive)
GI50 (HOP-92): 13.8 µM (inactive)
GI50 (SF-295): 19.2 µM (inactive)
GI50 (HT-29): 25.6 µM (inactive)
GI50 (TK-10): 29.8 µM (inactive)
GI50 (HCT-116): 16.4 µM (inactive)
GI50 (NCI-H226): 21.4 µM (inactive)
GI50 (SF-268): 24.4 µM (inactive)
GI50 (SK-MEL-5): 17.3 µM (inactive)
GI50 (NCI-H522): 22.2 µM (inactive)
GI50 (CCRF-CEM): 55.2 µM (inactive)
GI50 (EKVX): 23.1 µM (inactive)
GI50 (ACHN): 24.4 µM (inactive)
GI50 (HOP-62): 16.4 µM (inactive)
GI50 (T47D): 22.8 µM (inactive)
GI50 (SW-620): 25.6 µM (inactive)
GI50 (HCT-15): 17.8 µM
GI50 (DU-145): 14.8 µM (inactive)
GI50 (UACC-257): 27.6 µM (inactive)
GI50 (IGROV-1): 15.8 µM (inactive)
GI50 (OVCAR-3): 14.9 µM (inactive)
GI50 (M14): 20.8 µM (inactive)
GI50 (MDA-N): 26.4 µM (inactive)
GI50 (SNB-75): 29.6 µM (inactive)
GI50 (RXF 393): 24.8 µM (inactive)
GI50 (LOX IMVI): 23.6 µM (inactive)
GI50 (OVCAR-4): 26.5 µM (inactive)
GI50 (SK-OV-3): 17.1 µM (inactive)
GI50 (UACC-62): 16.2 µM (inactive)
GI50 (SNB-19): 29.3 µM (inactive)
GI50 (SF-539): 15.5 µM (inactive)
GI50 (KM12): 19.3 µM (inactive)
GI50 (HCC 2998): 20.1 µM (inactive)
GI50 (A549): 27.1 µM (inactive)
GI50 (K562): > 100 µM (inactive)
GI50 (Malme-3M): 25.1 µM (inactive)
GI50 (NCI/ADR-RES): 21.2 µM (inactive)
GI50 (UO-31): 17 µM (inactive)
GI50 (OVCAR-8): 21.5 µM (inactive)
GI50 (U-251): 18 µM (inactive)
GI50 (MCF7): 22.4 µM (inactive)
GI50 (RPMI-8226): 37.7 µM (inactive)
GI50 (COLO 205): 18.7 µM (inactive)
GI50 (SR): 44.9 µM (inactive)
GI50 (SN12C): 23.3 µM (inactive)

COc1ccc(C(OCC2OC(n3cc(C)c(=O)[nH]c3=O)CC2n2cc(Cn3cc(F)c(=O)[nH]c3=O)nn2)(c2ccccc2)c2ccccc2)cc1 (stereo not given)
GI50 (A498): 10.1 µM (inactive)
GI50 (MDA-MB-435): 1.75 µM (inactive)
GI50 (BT-549): 11.1 µM (inactive)
GI50 (SK-MEL-28): 11.3 µM (inactive)
GI50 (SK-MEL-2): 6.31 µM (inactive)
GI50 (MDA-MB-231): 2.69 µM (inactive)
GI50 (Hs-578T): 6.97 µM (inactive)
GI50 (MOLT-4): 4.54 µM (inactive)
GI50 (HL-60): 2.63 µM (inactive)
GI50 (NCI-H23): 8.28 µM (inactive)
GI50 (CAKI-1): 8.38 µM (inactive)
GI50 (OVCAR-5): 10.4 µM (inactive)
GI50 (PC-3): 4.33 µM (inactive)
GI50 (HOP-92): 2.62 µM (inactive)
GI50 (SF-295): 3.26 µM (inactive)
GI50 (HT-29): 6.28 µM (inactive)
GI50 (TK-10): 13.6 µM (inactive)
GI50 (HCT-116): 3.38 µM (inactive)
GI50 (NCI-H226): 4.42 µM (inactive)
GI50 (SF-268): 5.06 µM (inactive)
GI50 (SK-MEL-5): 7.82 µM (inactive)
GI50 (NCI-H522): 3.77 µM (inactive)
GI50 (CCRF-CEM): 2.56 µM (inactive)
GI50 (EKVX): 5.65 µM (inactive)
GI50 (ACHN): 10.8 µM (inactive)
GI50 (HOP-62): 4.1 µM (inactive)
GI50 (T47D): 5.71 µM (inactive)
GI50 (SW-620): 3.72 µM (inactive)
GI50 (HCT-15): 4.5 µM
GI50 (DU-145): 6.44 µM (inactive)
GI50 (UACC-257): 11.5 µM (inactive)
GI50 (IGROV-1): 7.96 µM (inactive)
GI50 (OVCAR-3): 5.26 µM (inactive)
GI50 (M14): 4.58 µM (inactive)
GI50 (MDA-N): 1.54 µM (inactive)
GI50 (SNB-75): 12.6 µM (inactive)
GI50 (786-0): 3.67 µM (inactive)
GI50 (RXF 393): 10.6 µM (inactive)
GI50 (LOX IMVI): 4.38 µM (inactive)
GI50 (OVCAR-4): 16.4 µM (inactive)
GI50 (SK-OV-3): 5.3 µM (inactive)
GI50 (UACC-62): 11 µM (inactive)
GI50 (SNB-19): 6.07 µM (inactive)
GI50 (SF-539): 4.23 µM (inactive)
GI50 (KM12): 4.25 µM (inactive)
GI50 (HCC 2998): 3.31 µM (inactive)
GI50 (A549): 4.1 µM (inactive)
GI50 (Malme-3M): 9.04 µM (inactive)
GI50 (NCI/ADR-RES): 31.6 µM (inactive)
GI50 (UO-31): 9.73 µM (inactive)
GI50 (OVCAR-8): 9.57 µM (inactive)
GI50 (U-251): 3.78 µM (inactive)
GI50 (MCF7): 3.54 µM (inactive)
GI50 (RPMI-8226): 3.04 µM (inactive)
GI50 (COLO 205): 4.97 µM (inactive)
GI50 (SR): 2.51 µM (inactive)
GI50 (SN12C): 5.71 µM (inactive)
